Laboratory results published in patent US8101760B2, “Glucocorticoid receptor modulator and methods of use” (Eli Lilly and Company, priority 2007, dated 2012).
Like-named read-outs stand apart in the source and are kept apart here.

Test system: carrageenan-induced paw edema
Assay: Carrageenan-induced paw edema (CPE) model
Type: in vivo, rat
Settings: for ED50: rat, oral gavage 2 h before carrageenan, 3 h after injection, mean of 5
Text: Carrageenans are a group of polysaccharides which can induce an acute inflammatory response in animals. Cardinal signs of inflammation including edema, hyperalgesia and erythema are developed in the injection site immediately following injection. The CPE model (Winter et al., Proc. Soc. Exp. Biol. Med. 111, 544-547, 1962) is a recognized model of inflammation and can be used to evaluate the antinflammatory effects of glucocorticoid receptor ligands.
To evaluate the anti-inflammatory effects of Compound (I), the Compound (I) is formulated in a vehicle comprising 0.5% carboxymethyl cellulose and 0.25% Tween 80 then administered orally via gavage to male Sprague-Dawley rats (180-200 g) (Harlan Industries, Indianapolis, Ind.). For comparison, prednisolone is administered orally in the same vehicle. Two hours later, 1% carrageenan in 50 μL of 0.9% pyrogen free saline is injected into the subplantar regions of the right hind paw. Rats are euthanized by CO2 at 3 hours after the carrageenan injection. Paws are removed then weighed using a microbalance. Paws are then immediately immersed into liquid nitrogen until frozen. Frozen paws are dissected by making several cuts on the paw surface then centrifuged to extract the exudates. Exudate levels of IL-1β, a cytokine generated during the inflammatory response, is then measured by ELISA (R&D Systems, Inc., Catalog No. RLB00) using standard techniques. Total paw protein is also measured using a protein assay kit (Pierce Biotechnology, Inc., Rockford, Ill., U.S.A., Catalog No. 1856210) and the absolute level of IL-1β is normalized to yield a concentration value of ng IL-1β/mg total protein.

C[C@]12C=CC(=O)C=C1CC[C@@H]1[C@@H]2[C@@H](O)C[C@@]2(C)[C@H]1CC[C@]2(O)C(=O)CO [prednisolone, reference compound]
potency relative to Compound (I) (fold less potent) (rat CPE model, similar conditions): about 5 fold | ED50 (read-out: ED50, inhibition of carrageenan induced paw weight gain): ~6.6 mg/kg | ED50 (read-out: ED50, reduction of paw exudate levels of IL-1β): < 1 mg/kg
